Experimental data reported in patent US6638910B2, “Compositions and methods for controlling plant pests” (priority 1997, dated 2003).
Like-named read-outs stand apart in the source and are kept apart here. Starred links: 1 amine or outer side, 2 acyl side, 3 side chain; linkers in the order of their positions; H or OH if unused. Positions of bridges follow the written chain, without caps; N, C: chain ends. Non-standard residues stand in square brackets, D forms with d. Residues, ends and D or L forms follow the SMILES beside them. X1 = CC(C)CCCCCCCCC[C@H](CC(=O)[*:1])O[*:2]

Assays:
Saccharomyces cerevesiae = settings: Beeson et al. (1979) J. Antibiotics 32(8):828-833; cited from earlier work
Rhizoctonia solani = experiment: Greenhouse test, Sheath Blight on Rice; assay type: in vivo
Pyricularia oryzae = assay type: in vivo; settings: Rice
[1] = tested on: pre-adult beet armyworms (Spodoptera exigua); experiment: 96-well microplate insecticidal assay, score rating; assay type: in vivo; settings: Table 16; score 1 (all dead or stunted) to 4 (no dead)
Protocol: (§1) Bacillus samples were grown in a Bacillus culture media. […] One day old streaked cultures were used to inoculate 250 mL baffled shake flasks. Flasks were shaken at 200 rpm at 29° C. for 5 days. To assay insecticidal activity, 35 mL of culture broth were centrifuged at 5,200 rpm for 20 minutes and the supernatant used in microassay described below. Assays were performed in 96-well microplates. […] To assay insecticidal activity, an agar substrate was prepared for the wells of the microplate according to Marrone et al. (1985), J. Econ. Entomol. 78: 290-293. […] Deionized water was used as a negative control. Two replicates of test sample or control were used for each assay. 40 μL of supernatant sample or whole broth grown in medium 1, 2 or 3 were dispensed into each sample well. Plates were then placed in a fume hood to dry for approximately 2-3 hours until the agar solution was dried. […] The microplate was sealed with an airtight substance such as Mylar®, and each well ventilated with a pin press. The plates were incubated at 27° C. for up to 7 days. After incubation, wells were scored by noting neonate mortality or the degree of larval development. […] Scores were averaged among replicates within each sample. […] It contained the same ingredients as medium 3 without proflo cotton seed extract. All other procedures were the same as above. The test was repeated two or three times.

[2] = tested on: pre-adult corn rootworms (Diabrotica undecimpunctata); experiment: as above; assay type: in vivo; settings: Table 16; score 1 (all dead or stunted) to 4 (no dead)
Protocol: as §1

[3] = tested on: N2 strain of the nematode Caenorhabditis elegans; experiment: 96-well microplate nematicidal assay, score rating; assay type: in vivo; settings: Table 16; score 1 (all dead or stunted) to 4 (no dead)
Uncinula necator = experiment: Greenhouse test, Powdery Mildew on Grape; assay type: in vivo
Botrytis cinerea = experiment: Greenhouse test, Gray Mold on Pepper; assay type: in vivo
E. graminis = experiment: Greenhouse test, Powdery Mildew on Wheat; assay type: in vivo, Erysiphe graminis f. sp. graminis
[4] = tested on: fungi including Penicillium chrysogenum; settings: Peypoux et al. (1978) Tetrahedron 34:1147-1152; cited from earlier work
Phytophthora infestans = assay type: in vivo; settings: Tomato
Plasmopara viticola = experiment: Greenhouse test, grape downy mildew; settings: Chardonnay grape

## iturin-A
Saccharomyces cerevesiae
  LC50: 30 µg/mL

## CCCCNC(=O)n1c(NC(=O)OC)nc2ccccc21 [Benomyl]
Rhizoctonia solani; 40 ppm
  percent disease control, R. solani: 77%
Rhizoctonia solani; 100 ppm
  percent disease control, R. solani: 100%

## mycosubtilin
Saccharomyces cerevesiae
  LC50: 10 µg/mL

## bacillomycin L
Saccharomyces cerevesiae
  LC50: 30 µg/mL

## O=C(Nc1ccccc1)N(Cc1ccc(Cl)cc1)C1CCCC1 [Pencycuron]
Pyricularia oryzae; 10 ppm
  percent disease control, P. oryzae: 100%
Pyricularia oryzae; 50 ppm
  percent disease control, P. oryzae: 100%

## CC(C)CCCCCCCCC[C@@H]1CC(=O)N[C@@H](CCC(=O)O)C(=O)N[C@@H](CC(C)C)C(=O)N[C@H](CC(C)C)C(=O)N[C@@H](C(C)C)C(=O)N[C@@H](CC(=O)O)C(=O)N[C@H](CC(C)C)C(=O)N[C@@H](CC(C)C)C(=O)O1 [Surfactin] (EL[dL]VD[dL]L; linker N-C via X1)
[1]
  Activity score, Beet armyworm: 4.0
[2]
  Activity score, Corn rootworm: 2.0
[3]
  Activity score, C. Elegans: 4.0

## CCCCC(C#N)(Cn1cncn1)c1ccc(Cl)cc1 (stereo not shown) [Myclobutanil]
Uncinula necator; 10 ppm
  percent disease control, U. necator: 100%
Uncinula necator; 30 ppm
  percent disease control, U. necator: 100%

## CCCC1COC(Cn2cncn2)(c2ccc(Cl)cc2Cl)O1 (stereo not shown) [Propiconazole]
Botrytis cinerea; 5 ppm
  percent disease control, B. cinerea: 57%
Botrytis cinerea; 10 ppm
  percent disease control, B. cinerea: 87%
E. graminis; 0.2 ppm
  percent disease control, E. graminis: 54%
E. graminis; 0.5 ppm
  percent disease control, E. graminis: 100%

## Iturin-C
[4]
  activity against fungi: inactive

## COCC(=O)N(c1c(C)cccc1C)C(C)C(=O)OC (stereo not shown) [Metalaxyl]
Phytophthora infestans; 10 ppm
  percent disease control, P. infestans: 77%
Phytophthora infestans; 30 ppm
  percent disease control, P. infestans: 100%
Plasmopara viticola; 1 ppm
  percent disease control: 80% control
Plasmopara viticola; 10 ppm
  percent disease control: 98.3% control
Plasmopara viticola; 30 ppm
  percent disease control: 100% control
